Measured values published in BindingDB's records for PubMed 36250680 (University of Pisa, 2022).

Target: Macrophage metalloelastase (Homo sapiens, UniProt P39900)
Experiment: Inhibition of MMP12 (unknown origin)

Macrophage metalloelastase, sequence (P39900 whole entry): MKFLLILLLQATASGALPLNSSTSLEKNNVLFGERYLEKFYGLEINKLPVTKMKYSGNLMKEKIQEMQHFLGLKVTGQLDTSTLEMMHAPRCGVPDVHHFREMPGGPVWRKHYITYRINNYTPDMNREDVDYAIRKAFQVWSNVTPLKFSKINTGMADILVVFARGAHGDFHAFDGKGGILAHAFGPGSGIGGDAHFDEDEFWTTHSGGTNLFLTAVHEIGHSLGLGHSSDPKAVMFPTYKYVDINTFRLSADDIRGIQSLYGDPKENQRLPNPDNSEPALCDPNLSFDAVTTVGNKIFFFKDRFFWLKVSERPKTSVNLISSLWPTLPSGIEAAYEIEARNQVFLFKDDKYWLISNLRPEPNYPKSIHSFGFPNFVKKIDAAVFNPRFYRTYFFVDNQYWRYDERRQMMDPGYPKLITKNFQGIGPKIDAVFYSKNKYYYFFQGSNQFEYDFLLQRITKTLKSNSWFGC

With `Oc1cccc(O)c1O` the Ki was 2030 nM.
